Measurements as given in patent US20240122180A1, “FUNGICIDAL HALOMETHYL KETONES AND HYDRATES AND THEIR MIXTURES” (FMC Corporation, priority 2020, published 2024).

Key:
[1] = system: Phakopsora pachyrhizi (the causal agent of Asian soybean rust); experiment: Test A: preventive spray on soybean seedlings, visual disease rating (100 = 100% control; * 50 ppm, ** 10 ppm, *** 250 ppm); type: in vivo; conditions: 100 = 100% disease control
From the text: (§1) General protocol for preparing test suspensions for Tests A-E: the test compounds were first dissolved in acetone in an amount equal to 3% of the final volume and then suspended at the desired concentration (in ppm) in acetone and purified water (50/50 mix by volume) containing 250 ppm of the surfactant […] (polyhydric alcohol esters). The resulting test suspensions were then used in Tests A-E.
(§2) The test solution was sprayed to the point of run-off on soybean seedlings. The following day the seedlings were inoculated with a spore suspension of Phakopsora pachyrhizi (the causal agent of Asian soybean rust) and incubated in a saturated atmosphere at 22° C. for 24 h, and then moved to a growth chamber at 22° C. for 8 days, after which time visual disease ratings were made.
(§3) Results for Tests A-E are given in Table A. In the Table, a rating of 100 indicates 100% disease control and a rating of 0 indicates no disease control (relative to the controls). An asterisk “*” or a double asterisk “**” or a triple asterisk “***” next to the rating value indicates a 50 ppm, 10 ppm and 250 ppm test suspension was used, respectively. A dash (-) indicates the compound was not tested.

[2] = system: Puccinia recondita f. sp. tritici (the causal agent of wheat leaf rust); experiment: Test B: preventive spray on wheat seedlings, disease rating (100 = 100% control; * 50 ppm, ** 10 ppm, *** 250 ppm); type: in vivo; conditions: 100 = 100% disease control
From the text: as §1
as §2, with “wheat” for “soybean”, “Puccinia recondita f. sp. tritici” for “Phakopsora pachyrhizi”, “wheat leaf” for “Asian soybean”, “20°” for “22°”, “6” for “8”, “time” for “time visual”
as §3

[3] = 10 ppm test suspension, 0 = no control
[4] = 50 ppm test suspension, 0 = no control
[5] = 10 ppm test suspension, soybean seedlings
[6] = 10 ppm test suspension, wheat seedlings
[7] = 50 ppm test suspension, soybean seedlings
[8] = 50 ppm test suspension, wheat seedlings

## CCO/C(=C\Oc1ccc(Cn2ccc(C(=O)OCC3CCC3)n2)cc1)C(F)(F)F [compound 361]
[1]; [3]
  Test A disease control rating: 100%
[2]; [3]
  Test B disease control rating: 0%

## CCO/C(=C\Oc1cccc(Cn2cc(C(=O)OCC(F)F)cn2)c1)C(F)(F)F [compound 347]
[1]; [4]
  Test A disease control rating: 100%
[2]; [4]
  Test B disease control rating: 0%

## COC(=O)COC(=O)c1cnn(Cc2ccc(OCC3(C(F)(F)F)OCCO3)cc2)c1 [compound 203]
[1]; [5]
  Test A disease control rating: 50%
[2]; [6]
  Test B disease control rating: 0%

## CCOC(=O)c1ccnn1Cc1ccc(OC)c(O/C=C(\OCC)C(F)(F)F)c1 [compound 463]
[1]; [3]
  Test A disease control rating: 0%
[2]; [3]
  Test B disease control rating: 0%

## O=C(NCC(F)(F)F)c1cnc(Cc2ccc(OCC3(C(F)(F)F)OCCO3)cc2)s1 [compound 275]
[1]; [3]
  Test A disease control rating: 0%
[2]; [3]
  Test B disease control rating: 0%

## C=CCOC(=O)c1ccc(O/C=C(\OCC)C(F)(F)F)cc1 [compound 74]
[1]; [5]
  Test A disease control rating: 0%
[2]; [6]
  Test B disease control rating: 0%

## CCO/C(=C\Oc1ccc(Cn2cccn2)cc1)C(F)(F)F [compound 151]
[1]; [5]
  Test A disease control rating: 0%
[2]; [6]
  Test B disease control rating: 0%

## CCO/C(=C\Oc1ccc(Cn2cnc(C#N)n2)cc1)C(F)(F)F [compound 82]
[1]; [5]
  Test A disease control rating: 97%
[2]; [6]
  Test B disease control rating: 0%

## CCC#CCOC(=O)c1ccn(Cc2ccc(O/C=C(\OCC)C(F)(F)F)cc2)n1 [compound 326]
[1]; [3]
  Test A disease control rating: 100%
[2]; [3]
  Test B disease control rating: 0%

## O=C(OCc1cccnc1)c1cnn(Cc2ccc(OCC3(C(F)(F)F)OCCO3)cc2)c1 [compound 200]
[1]; [5]
  Test A disease control rating: 100%
[2]; [6]
  Test B disease control rating: 0%

## O=C(NCC(F)(F)F)c1cnn(Cc2ccc(OCC3(C(F)(F)F)OCCO3)cc2)c1 [compound 197]
[1]; [5]
  Test A disease control rating: 0%
[2]; [6]
  Test B disease control rating: 0%

## C=CCOC(=O)c1cnn(Cc2cccc(O/C=C(\OCC)C(F)(F)F)c2)c1 [compound 333]
[1]; [3]
  Test A disease control rating: 100%
[2]; [3]
  Test B disease control rating: 0%

## CCOC(=O)c1ccn(Cc2ccc(F)c(O/C=C(\OCC)C(F)(F)F)c2)n1 [compound 420]
[1]; [3]
  Test A disease control rating: 0%
[2]; [3]
  Test B disease control rating: 0%

## CCOC(=O)C=CCOc1ccc(OCC(O)(O)C(F)(F)F)cc1 [compound 97]
[1]; [7]
  Test A disease control rating: 94%
[2]; [8]
  Test B disease control rating: 0%

## CCO/C(=C\Oc1ccc(Cn2cnc(C(=O)OC)c2)cc1)C(F)(F)F [compound 86]
[1]; [5]
  Test A disease control rating: 99%
[2]; [6]
  Test B disease control rating: 0%

## CCO/C(=C\Oc1ccc(Cn2cc(C(=O)NCC#N)cn2)cc1)C(F)(F)F [compound 107]
[1]; [5]
  Test A disease control rating: 0%
[2]; [6]
  Test B disease control rating: 0%

## CCOC(=O)c1cnn(CCCc2cccc(O/C=C(\OCC)C(F)(F)F)c2)c1 [compound 421]
[1]; [3]
  Test A disease control rating: 0%
[2]; [3]
  Test B disease control rating: 0%

## CCO/C(=C\Oc1ccc(CO)cc1)C(F)(F)F [compound 195]
[1]; [5]
  Test A disease control rating: 0%
[2]; [6]
  Test B disease control rating: 0%

## CCOC(=O)c1cnn(Cc2ccc(CCC3(C(F)(F)F)OCCO3)cc2)c1 [compound 67]
[1]; [7]
  Test A disease control rating: 65%
[2]; [8]
  Test B disease control rating: 0%

## FC(F)(F)c1nc(-c2ccc(OCC3(C(F)(F)F)OCCO3)cc2)no1 [compound 173]
[1]; [5]
  Test A disease control rating: 0%
[2]; [6]
  Test B disease control rating: 0%

## CON(Cc1ccc(OCC2(C(F)(F)F)OCCO2)cc1)C(=O)C1CC1 [compound 236]
[1]; [5]
  Test A disease control rating: 75%
[2]; [6]
  Test B disease control rating: 0%

## CCO/C(=C\Oc1cccc(Cc2nc(C(=O)NCC(F)(F)F)cs2)c1)C(F)(F)F [compound 377]
[1]; Phakopsora pachyrhizi, 10 ppm test suspension, 0 = no control
  pest or weed control at 10 ppm: 44%
[2]; Puccinia recondita, 10 ppm test suspension, 0 = no control
  pest or weed control at 10 ppm: 0%

## CCO/C(=C\Oc1ccc(Cn2cc(C(=O)NCC(F)(F)F)cn2)cc1)C(F)(F)F [compound 106]
[1]; [5]
  Test A disease control rating: 0%
[2]; [6]
  Test B disease control rating: 0%

## CCCCOC(=O)c1cnn(Cc2ccc(OCC3(C(F)(F)F)OCCO3)cc2)c1 [compound 125]
[1]; [5]
  Test A disease control rating: 100%
[2]; [6]
  Test B disease control rating: 0%
